Values of other authors, collected in patent US20140172387A1, “PREDICTION OF MOLECULAR BIOACTIVATION” (Genentech, Inc., priority 2012, published 2014).
Converted amounts (≈) assume the structure as drawn. Where two headings read alike, the source gives them in different places.

Legend:
[1] = not given; remark: listed apart in the source
[2] = target: insect nicotinic acetylcholine receptor (nAChR); details: for IC50: insect nAChR
α4β2 mammalian nAChR = α4β2 mammalian nAChR (Homo sapiens, UniProt P17787+P43681)
α4β2 mammalian nAChR, sequence (P43681 29-627 limits assumed): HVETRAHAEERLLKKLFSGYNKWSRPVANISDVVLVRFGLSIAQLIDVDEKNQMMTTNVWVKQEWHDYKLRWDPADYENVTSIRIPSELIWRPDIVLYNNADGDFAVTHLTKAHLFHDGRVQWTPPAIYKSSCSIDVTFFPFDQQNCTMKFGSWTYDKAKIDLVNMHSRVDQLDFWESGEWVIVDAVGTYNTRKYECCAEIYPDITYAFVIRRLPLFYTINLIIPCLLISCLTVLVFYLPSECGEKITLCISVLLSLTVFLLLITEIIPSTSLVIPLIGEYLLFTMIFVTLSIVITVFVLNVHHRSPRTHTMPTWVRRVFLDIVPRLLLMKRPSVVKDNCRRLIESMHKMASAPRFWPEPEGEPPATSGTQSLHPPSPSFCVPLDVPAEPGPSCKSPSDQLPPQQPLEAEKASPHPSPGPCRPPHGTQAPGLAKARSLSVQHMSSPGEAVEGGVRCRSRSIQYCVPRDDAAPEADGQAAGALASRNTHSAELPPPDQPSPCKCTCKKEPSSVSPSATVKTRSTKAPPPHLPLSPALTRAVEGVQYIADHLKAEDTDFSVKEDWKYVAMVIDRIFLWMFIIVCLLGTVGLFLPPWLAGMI
α4β2 mammalian nAChR, sequence (P17787 26-502): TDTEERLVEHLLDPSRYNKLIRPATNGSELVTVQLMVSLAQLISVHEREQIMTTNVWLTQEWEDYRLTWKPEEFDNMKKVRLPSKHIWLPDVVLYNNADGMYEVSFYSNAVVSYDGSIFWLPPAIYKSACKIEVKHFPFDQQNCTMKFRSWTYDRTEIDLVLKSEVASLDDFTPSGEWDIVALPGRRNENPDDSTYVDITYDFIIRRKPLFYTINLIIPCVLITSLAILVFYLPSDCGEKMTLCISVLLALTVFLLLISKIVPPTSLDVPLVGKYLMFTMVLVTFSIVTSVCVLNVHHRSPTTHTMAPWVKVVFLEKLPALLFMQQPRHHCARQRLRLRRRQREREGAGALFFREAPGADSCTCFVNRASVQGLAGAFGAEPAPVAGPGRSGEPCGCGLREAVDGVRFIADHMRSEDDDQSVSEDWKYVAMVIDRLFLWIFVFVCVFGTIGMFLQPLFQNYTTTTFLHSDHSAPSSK

Compound: CCc1nn(CCCN2CCN(c3cccc(Cl)c3)CC2)c(=O)n1CCOc1ccccc1 [Nefazodone (1), 1-(3-[4-(3-chlorophenyl)piperazin-1-yl]propyl)-3-ethyl-4-(2-phenoxyethyl)-1H-1,2,4-triazol-5(4H)-one]
- water solubility (experimental data) (at pH 7): 6.41 µg/mL (≈ 0.0136 mM)

Compound: CC(=O)Nc1ccc(O)cc1 [acetaminophen (1), N-acetyl-para-aminophenol]
- excreted unchanged in urine [1]: up to 9 % of therapeutic dose
- water solubility (experimental data) (at 20° C): 12780 µg/mL (≈ 84.5 mM)

Compound: O=[N+]([O-])NC1=NCCN1Cc1ccc(Cl)nc1 [imidacloprid (1), N-[1-[(6-Chloro-3-pyridyl)methyl]-4,5-dihydroimidazol-2-yl]nitramide]
- IC50 [2]: 4.6 nM
- selectivity for the insect vs. the α4β2 mammalian nAChR ([2]; insect vs. mammalian α4β2 nAChR): > 500 fold
- IC50 (α4β2 mammalian nAChR): 2600 nM

Compound: N=C1NCCN1Cc1ccc(Cl)nc1 [imidacloprid-NH (6), imidacloprid-NH]
- IC50 [2]: 1530 nM
- IC50 (α4β2 mammalian nAChR; read-out: IC50): 8.2 nM

Compound: C=CCl [vinyl chloride (1), chloroethene]
- water solubility (experimental data): 2700 µg/mL
